Assays:
hTEAD4 = target: T1, hTEAD4 (Homo sapiens, UniProt Q15561); test: Cellular thermal shift assay (CETSA) in HCT116 cell lysates; format: cell-based; conditions: 50 μM, 10 min, DMSO 49.8
T1 construct: Target engagement in HCT116 cell lysates was proven by means of a cellular thermal shift assay; endogenous in cells; host or cells: HCT116 cell lysate
Procedure: HCT116 cells were grown in Dulbecco’s modified Eagle’s medium (Sigma-Aldrich, #P04-03550) containing 10% fetal bovine serum, 1× NEAA (Sigma-Aldrich, # P08-32800) and 1 mM sodium pyruvate (Sigma-Aldrich, #S8636) until they reached 90% confluency. Cells were detached, transferred to two separate tubes, and washed three times with PBS. Then, 0.6 mL of PBS containing 0.04% NP-40 was added to each tube and cells were lysed by means of freeze and thaw. Lysates were centrifuged (Beckman Optima MAX-TL) at 100,000g, 4 °C for 25 min and protein concentration was determined using the DC Protein Assay Kit I (Bio-Rad, #5000111). Aliquots (1.5 mL) containing 1 mg/mL protein were stored at −80 °C until further usage.
Compound 19 (2.75 μL 10 mM stock, 50 μM) or DMSO (2.75 μL) was added to 550 μL of HCT116 lysates (1 mg/mL), samples were mixed and incubated for 10 min at room temperature. Treated and nontreated lysates were divided into ten aliquots, each 50 μL in PCR tubes. The aliquots were individually heated at different temperatures (Eppendorf Mastercycler ep Gradient S). […] To 16 μL of each supernatant was added 4 μL of 5× loading buffer and incubated for 5 min at 95 °C, before samples were analyzed by immunoblotting. […]
Images were analyzed with ImageJ (FUJI). […]

hTEAD4 (nonacylated) [1] = target: T2, hTEAD4 (nonacylated) (Homo sapiens, UniProt Q15561); test: Time-dependent inhibition, thiol conjugation assay; format: binding
T2 construct: N-terminal His6-tagged hTEAD4^217–434 was subcloned; made in house; host or cells: Escherichia coli BL21-CodonPlus (DE3)-RIPL
Procedure: (§1) To serially diluted solutions of the tested compounds in 5 μL of assay buffer [HEPES (25 mM) and NaCl (150 mM) pH 6.5], freshly prepared 5 μL of 0.45 μM protein solution was added and incubated at room temperature for 10 min, followed by addition of 5 μL of 0.45 μM CPM solution, giving a 15 μL final assay volume, 150 nM protein, and 150 nM CPM. The assay plate was shaken at room temperature for 1 h before measuring the fluorescence (Ex/Em: 380/470 nm). Compound 19 was used as an internal standard to determine 100% inhibition.
(§2) TDI of hTEAD4 (nonacylated) by compound 19 was monitored in FP (central pocket binding) and thiol conjugation assays at 5–7 different concentrations (0.15–40 μM) following 1, 2, 4, and 24 h incubation at 4 °C (mean ± SD; n = 2). By fitting the percent of inhibition versus preincubation time at different concentrations, kobs was calculated. Next, kobs was plotted against concentration and was further fitted to a nonlinear regression model to determine the kinetic parameters of covalent inhibition of hTEAD4, where plateau is showing kinact (min^–1) and t1/2 is Ki (μM).

hTEAD4 (nonacylated) [2] = target: T2, hTEAD4 (nonacylated); test: Time-dependent inhibition, FP (central pocket binding) assay
Procedure: To serially diluted solution of the tested compounds in 5 μL assay buffer [HEPES (25 mM) and NaCl (150 mM), pH 6.5 buffer], freshly prepared 5 μL of 0.15 μM protein solution was added and incubated at room temperature for 10 min followed by 5 μL of 30 nM FITC-palmitate solution, giving 15 μL final assay volume, 50 nM protein, and 10 nM tracer. The assay plate was shaken at room temperature for 1 h before measuring the FP (Ex/Em: 485/535 nm).
as §2

hTEAD2 = target: T3, hTEAD2 (Homo sapiens, UniProt Q15562); test: Thiol conjugation assay, TEAD homologues; format: binding; conditions: read-out: TEAD2 IC50
T3 construct: N-terminal His6-tagged hTEAD4^217–447 was subcloned; His6 (N); made in house; host or cells: E. coli (as described for N-His hTEAD4)
Procedure: as §1

hTEAD3 = target: T4, hTEAD3 (Homo sapiens, UniProt Q99594); test: Thiol conjugation assay, TEAD homologues; format: binding; conditions: read-out: TEAD3 IC50
T4 construct: N-terminal His6-tagged hTEAD4^216–434 was expressed; His6 (N); made in house
Procedure: as §1

Ala mutant of mTEAD4 = target: T5, Ala mutant of mTEAD4 (Mus musculus, UniProt Q62296, C360A); test: Thiol conjugation assay with cysteine mutant; format: binding; conditions: 10 μM compound
T5 construct: N-terminal His6- and MBP-tagged mTEAD4^209–427 with Cys360Ala mutation; made in house; host or cells: E. coli BL21-CodonPlus (DE3)-RIPL
Procedure: as §1

Ser mutant of mTEAD4 = target: T6, Ser mutant of mTEAD4 (Mus musculus, UniProt Q62296, C360S); test: Thiol conjugation assay with cysteine mutant; format: binding; conditions: 10 μM compound
T6 construct: His (N); made in house
Procedure: as §1

mTEAD4 (nonacylated) = target: T7, mTEAD4 (nonacylated) (Mus musculus, UniProt Q62296); test: 1H–15N HSQC NMR; format: binding; conditions: 0.5 mM compound, versus DMSO
T7 construct: made in house
Procedure: The ^13C/^15N-labeled mTEAD4 was prepared following a protocol established earlier,[45] and the protein was deacylated as described above for hTEAD4. ^1H–^15N HSQC spectra in the presence of DMSO or the test compound (0.5 mM) were collected at 37 °C on a Bruker 600 MHz magnet equipped with a cryoprobe in 20 mM HEPES, pH 7.3 buffer containing 150 mM NaCl and 1 mM DTT. The spectra were processed and overlaid.

T2 sequence (Q15561 217-434): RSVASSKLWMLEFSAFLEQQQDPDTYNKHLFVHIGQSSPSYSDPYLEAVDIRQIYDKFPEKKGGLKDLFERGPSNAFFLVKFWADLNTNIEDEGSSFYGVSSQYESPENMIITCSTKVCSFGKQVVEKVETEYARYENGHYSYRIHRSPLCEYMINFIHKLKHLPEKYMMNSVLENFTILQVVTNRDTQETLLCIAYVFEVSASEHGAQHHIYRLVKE
T6 sequence (Q62296 whole entry C360S): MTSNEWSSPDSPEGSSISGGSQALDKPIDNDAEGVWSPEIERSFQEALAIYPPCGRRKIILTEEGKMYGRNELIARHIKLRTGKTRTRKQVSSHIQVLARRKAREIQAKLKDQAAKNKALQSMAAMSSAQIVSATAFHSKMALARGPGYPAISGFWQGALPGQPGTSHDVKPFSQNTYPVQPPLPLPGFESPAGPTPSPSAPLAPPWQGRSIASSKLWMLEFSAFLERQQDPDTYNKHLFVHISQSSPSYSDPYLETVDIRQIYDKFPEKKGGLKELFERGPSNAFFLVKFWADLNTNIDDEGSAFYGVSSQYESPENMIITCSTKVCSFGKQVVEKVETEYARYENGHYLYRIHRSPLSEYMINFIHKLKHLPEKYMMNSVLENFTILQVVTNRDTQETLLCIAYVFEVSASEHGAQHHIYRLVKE
T5 sequence (Q62296 209-427 C360A): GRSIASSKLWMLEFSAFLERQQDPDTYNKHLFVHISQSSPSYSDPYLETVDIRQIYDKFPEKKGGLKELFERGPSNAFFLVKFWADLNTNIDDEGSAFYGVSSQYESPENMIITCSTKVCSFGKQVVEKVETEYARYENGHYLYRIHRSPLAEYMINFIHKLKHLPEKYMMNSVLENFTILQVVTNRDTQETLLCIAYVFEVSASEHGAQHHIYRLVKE
T7 sequence (Q62296 210-427 limits assumed): as the sequence (Q15561 217-434) above, with V3I, Q19R, G35S, A48T, D67E, E91D, S96A, S142L counted along it
T3 sequence (Q15562 217-447): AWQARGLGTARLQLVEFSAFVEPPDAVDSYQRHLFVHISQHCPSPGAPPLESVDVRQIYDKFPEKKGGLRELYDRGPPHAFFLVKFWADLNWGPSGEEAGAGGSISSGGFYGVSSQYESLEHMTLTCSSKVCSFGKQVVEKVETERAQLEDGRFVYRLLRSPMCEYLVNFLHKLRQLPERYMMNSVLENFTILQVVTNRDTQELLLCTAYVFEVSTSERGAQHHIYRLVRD
T1 sequence (Q15561 whole entry): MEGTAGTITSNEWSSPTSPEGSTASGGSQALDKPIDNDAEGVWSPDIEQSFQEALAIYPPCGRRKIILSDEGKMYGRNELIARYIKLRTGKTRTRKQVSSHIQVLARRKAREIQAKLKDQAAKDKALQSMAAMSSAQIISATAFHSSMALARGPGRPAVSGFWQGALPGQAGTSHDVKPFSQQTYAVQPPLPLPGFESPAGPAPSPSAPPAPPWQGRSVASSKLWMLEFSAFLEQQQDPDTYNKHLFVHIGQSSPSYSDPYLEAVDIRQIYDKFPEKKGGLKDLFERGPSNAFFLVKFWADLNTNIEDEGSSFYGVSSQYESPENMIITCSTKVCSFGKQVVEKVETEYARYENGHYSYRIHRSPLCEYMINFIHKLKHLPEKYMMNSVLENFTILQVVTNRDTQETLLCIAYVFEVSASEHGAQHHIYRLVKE
T4 sequence (Q99594 216-434): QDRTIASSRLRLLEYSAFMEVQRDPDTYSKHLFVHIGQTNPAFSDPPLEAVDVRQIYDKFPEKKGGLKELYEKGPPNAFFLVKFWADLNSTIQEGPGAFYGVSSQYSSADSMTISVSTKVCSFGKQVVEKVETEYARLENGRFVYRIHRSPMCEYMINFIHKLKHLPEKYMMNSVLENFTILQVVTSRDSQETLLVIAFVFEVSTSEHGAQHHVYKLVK

SMILES: O=c1cc(CO)oc(C(Nc2ccccc2)c2ccccc2)c1O (centres unmarked) [Compound 19, 3-Hydroxy-6-(hydroxymethyl)-2-(phenyl(phenylamino)methyl)-4H-pyran-4-one]
- melting temperature of hTEAD4 (CETSA) (hTEAD4): 53.1 °C
- kinact (hTEAD4 (nonacylated) [1]; supplementary CSV): 0.000333 s⁻¹
- kinact/KI (hTEAD4 (nonacylated) [1]; thiol conjugation assay): 138 M⁻¹ s⁻¹
- kinact/KI (hTEAD4 (nonacylated) [2]; FP assay): 66.7 M⁻¹ s⁻¹
- kinact (hTEAD4 (nonacylated) [2]; FP, read-out: kinact (converted)): 0.0015 s⁻¹
- kinact (hTEAD4 (nonacylated) [2]; supplementary CSV, read-out: Kinact Fluorescence Polarization (converted)): 0.00015 s⁻¹
- IC50 (hTEAD2): 6.9 µM
- IC50 (hTEAD3): 4.6 µM
- inhibition of the increase in fluorescence signal (Ala mutant of mTEAD4): cannot inhibit
- inhibition of the increase in fluorescence signal (Ser mutant of mTEAD4): cannot inhibit
- effect on 1H–15N HSQC spectrum (mTEAD4 (nonacylated)): induced line broadening of several residues

— article PMC7586386, “Discovery of Covalent Inhibitors Targeting the Transcriptional Enhanced Associate Domain Central Pocket” (Journal of Medicinal Chemistry, 2020)
